Legend:
AMPK = AMPK activation (pT172-AMPK) in C2C12 myocytes; assay type: cell-based, mouse; conditions: 1 mM
Description: Cell culture—Mouse C2C12 myoblasts were obtained from American Type Culture Collection (Manassas, Va.), and were maintained in Dulbecco's modified Eagle's medium (DMEM) supplemented with 10% fetal bovine serum at 37° C. under a humidified atmosphere of 5% CO2.
C2C12 cells were seeded at an initial density of 6×10^4 cells/cm^2 in 24-well plates. For two days, the cells were allowed grow to reach confluence. Following confluence, the cells were forced to differentiate into myocytes by culturing in DMEM supplemented with 2% horse serum for seven days.
Treatment—On Day 8 to 10 post differentiation, C2C12 myocytes were incubated in serum-free DMEM plus 0.5% BSA (bovine serum albumin) for three hours. […]
Measuring activated AMPKa—pT^172-AMPK was quantified using the Biosource AMPK Immunoassay Kit (Camarillo, Calif.) without modification. Protein content of the cell lysates was determined with the Active Motif fluorescent protein assay reagent (Carlsbad Calif., Hoefelschweiger, B. K., Duerkop, A., and Wolfbeis, O. S. Novel type of general protein assay using a chromogenic and fluorogenic amine-reactive probe. Anal Biochem 2005, 344, 122-9). A Packard Fluorocount spectrofluorometer (Model #BF 10000, Meridan, Conn.) was used for protein determination and a MEL312e BIO-KINETICS READER (Bio-Tek Instruments, Winooski, Vt.) was used for quantification of pT^172-AMPK. […]

Caco-2 monolayers = test: t10-CLA-induced loss of transepithelial electrical resistance in Caco-2 monolayers; assay type: cell-based, human; conditions: 50 μM t10-CLA stimulus, positive control set to 100; each material at its tabulated concentration (TQ 5.0, NS8 0.11, NS9 0.99, NS10 0.012, NSSpent#2 0.0005 μg TQ equivalents/mL; Spent#1 5 μg/mL)
Text: Caco-2 Cells-The protocol for growing and differentiation the human Caco-2 colon andenocarcinoma cells was a modification of Protocol 3 as described by Yamashita et al. [[…]., and Furuyama, Y. (2002) New and better protocols for a short-term Caco-2 cell culture system, J Pharm Sci 91, 669-679]. Caco-2 Human Colon Adenocarcinoma cells were obtained from ATCC (Rockville, Md.; catalog #HTB-37) and maintained in a growth media: DMEM (Dulbecco's Modified Eagles Medium 1×) containing L-glutamine, glucose; Cellgro catalog #35-010CV with the following additions: (1) Penicillin (5,000 IU/mL)/Streptomycin (5,000 μg/mL) Cellgro catalog #30-001C1, (2) 10% FBS-Fetal Bovine Serum, Characterized; Hyclone catalog #SH30071.3, and (3) 1% NEAA-Non Essential Amino Acids; Cellgro catalog #25-025-CI; cells were cultured at 37 C in a humidified air-5% CO2 atmosphere in T175 flasks. Differentiation of Caco-2 cells to intestinal epithelial cells-BIOCOAT^R HTS Caco-2 Assay System kits (Becton Dickinson, N.J.; catalog #354801) consisting of 24-well fibrillar collagen coated inserts and feeder trays were used in all experiments and plated as follows. Media was removed from the T175 flasks and cells were washed with 10 mLs PBS (phosphate buffered saline 1× without Ca^++, without Mg^++; Cellgro #25-053-CI). PBS was removed and 5 mL of Trypsin/EDTA (1×, 0.25% Trypsin/2.21 mM EDTA in HBSS; Cellgro #25-053-CI) were added to the flask and the flask placed at 37 C until cells were visibly floating, approximately 3-5 minutes. Five mL of growth media were added to the flask to neutralize the trypsin. This solution was then transferred to a sterile 50 mL tube. Eight μL were sampled and placed in a hemocytometer for counting under a microscope. Five-hundred μL of cell solution were placed in the upper chamber of each insert so that the final density per well was at least 6.6×10^5 cells/cm^2. Thirty-five mL of growth media were then added to the feeder tray and plate incubated at 37 C with 5% CO2 and 100% humidity for 20-24 hours. […]

[1] = test system: IL-6 secretion in 3T3-L1 adipocytes; test: IL-6 secretion in t10-CLA-stimulated 3T3-L1 adipocytes; assay type: cell-based, murine
Description: Treatment—Test materials were added four hours prior to the addition of t10-CLA at a concentration of 50 μM. Following overnight incubation, the supernatant media were sampled for determination of IL-6 and adiponectin. Interleukin-6 assay—The IL-6 secreted into the medium in response to […] stimulation was quantified using the Quantikine® Mouse IL-6 Immunoassay kit with no modifications (R&D Systems, Minneapolis, Minn.). […] All supernatant media samples were diluted 1:30 for quantification. Statistical Calculations and Interpretation—Test materials and were assayed in duplicate, while solvent controls were replicated eight times. IL-6 and adiponectin secretion were represented relative to the IL-6 and adiponectin secretion of the t10-CLA only controls as the IL-6 and adiponectin index and differences among the means were analyzed by the student's t-test assuming a five percent probability of a type I error (Excel; Microsoft, Redmond, Wash.).

[2] = test system: adiponectin secretion in 3T3-L1 adipocytes; test: Adiponectin secretion in t10-CLA-stimulated 3T3-L1 adipocytes; assay type: cell-based, murine
Description: Treatment—Test materials were added four hours prior to the addition of t10-CLA at a concentration of 50 μM. Following overnight incubation, the supernatant media were sampled for determination of IL-6 and adiponectin. Adiponectin assay—The adiponectin secreted into the medium was quantified using the Mouse Adiponectin Quantikine® Immunoassay kit with no modifications (R&D Systems, Minneapolis, Minn.). […] Statistical Calculations and Interpretation—Test materials and were assayed in duplicate, while solvent controls were replicated eight times. IL-6 and adiponectin secretion were represented relative to the IL-6 and adiponectin secretion of the t10-CLA only controls as the IL-6 and adiponectin index and differences among the means were analyzed by the student's t-test assuming a five percent probability of a type I error (Excel; Microsoft, Redmond, Wash.).

[3] = relative to t10-CLA only control (100), 50 μM t10-CLA, overnight, each material at its tabulated concentration

Row | Compound | increase in pT172-AMPK relative to DMSO negative controls (AMPK; average over ten independent assays, 95% CI=1.26-2.21) [fold] | AMPK activation (AMPK; in assays run with N. sativa supercritical CO2 extracts) [fold] | Relative Loss of TEER (Caco-2 monolayers) | increase in IL-6 secretion relative to controls ([1]; 50 μM) [fold] | IL-6 Index [1, 3] | reduction in adiponectin secretion relative to controls ([2]; 50 μM) [%] | Adiponectin Index [2, 3]
1 | NC(=O)c1ncn([C@@H]2O[C@H](CO)[C@@H](O)[C@H]2O)c1N [AICAR, 5-Aminoimidazole-4-carboxamide ribonucleoside] | 1.67 | 1.45 | – | – | – | – | –
2 | CCCCC/C=C\C=C\CCCCCCCCC(=O)O [t10-CLA, trans-10, cis12-Conjugated Linoleic Acid] | – | – | 100 ± 5.81 | 8 | 100 ± 11 | 65 | 100 ± 14

From patent US8535740B2, “Compositions from Nigella sativa” (priority 2002, dated 2013)
